Measurements published in PubChem BioAssay (NCI).
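48-hour exposure; five concentrations; linearly interpolated endpoints. At the GI50, growth is halved. TGI: concentration producing complete growth inhibition.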

Assays:
Experiment in all cases: growth of human tumour cells (NCI), 48 h
UO-31 renal = system: UO-31 renal
SK-MEL-5 melanoma = system: SK-MEL-5 melanoma
OVCAR-5 ovarian = system: OVCAR-5 ovarian
SK-OV-3 ovarian = system: SK-OV-3 ovarian
HT29 colon = system: HT29 colon
SF-295 CNS = system: SF-295 CNS
KM12 colon = system: KM12 colon
SF-268 CNS = system: SF-268 CNS
NCI-H226 lung = system: NCI-H226 lung
SNB-19 CNS = system: SNB-19 CNS
OVCAR-4 ovarian = system: OVCAR-4 ovarian
NCI/ADR-RES ovarian = system: NCI/ADR-RES ovarian
PC-3 prostate = system: PC-3 prostate
COLO 205 colon = system: COLO 205 colon
MDA-MB-435 = system: MDA-MB-435
T-47D breast = system: T-47D breast
SK-MEL-2 melanoma = system: SK-MEL-2 melanoma
MOLT-4 leukemia = system: MOLT-4 leukemia
TK-10 renal = system: TK-10 renal
NCI-H460 lung = system: NCI-H460 lung
SN12C renal = system: SN12C renal
HOP-92 NSCLC = system: HOP-92 NSCLC
RXF 393 renal = system: RXF 393 renal
MDA-MB-231 breast = system: MDA-MB-231 breast
UACC-257 melanoma = system: UACC-257 melanoma
SNB-75 CNS = system: SNB-75 CNS
MCF7 breast = system: MCF7 breast
HS 578T breast = system: HS 578T breast
SR leukemia = system: SR leukemia
786-0 renal = system: 786-0 renal
A549 NSCLC = system: A549 NSCLC
SK-MEL-28 melanoma = system: SK-MEL-28 melanoma
IGROV1 ovarian = system: IGROV1 ovarian
U251 CNS = system: U251 CNS
OVCAR-8 ovarian = system: OVCAR-8 ovarian
NCI-H522 lung = system: NCI-H522 lung
A498 renal = system: A498 renal
SF-539 CNS = system: SF-539 CNS
HCC-2998 colon = system: HCC-2998 colon
HCT-15 colon = system: HCT-15 colon
BT-549 breast = system: BT-549 breast
DU-145 prostate = system: DU-145 prostate
CCRF-CEM leukemia = system: CCRF-CEM leukemia
MALME-3M melanoma = system: MALME-3M melanoma
LOX IMVI melanoma = system: LOX IMVI melanoma
HL-60(TB) leukemia = system: HL-60(TB) leukemia
NCI-H23 lung = system: NCI-H23 lung
ACHN renal = system: ACHN renal
RPMI-8226 leukemia = system: RPMI-8226 leukemia
SW-620 colon = system: SW-620 colon
EKVX NSCLC = system: EKVX NSCLC
CAKI-1 renal = system: CAKI-1 renal
HOP-62 NSCLC = system: HOP-62 NSCLC
UACC-62 melanoma = system: UACC-62 melanoma
HCT-116 colon = system: HCT-116 colon
K-562 leukemia = system: K-562 leukemia
M14 melanoma = system: M14 melanoma

O=C(NNc1nc2cc(F)ccc2n2c(CO)ccc12)c1cnccn1
GI50 (UO-31 renal): 68.9 nM
TGI (UO-31 renal): 5050 nM
GI50 (SK-MEL-5 melanoma): 481 nM
TGI (SK-MEL-5 melanoma): 3610 nM
GI50 (OVCAR-5 ovarian): 1360 nM
TGI (OVCAR-5 ovarian): > 100000 nM
GI50 (SK-OV-3 ovarian): 543 nM
TGI (SK-OV-3 ovarian): 18200 nM
GI50 (HT29 colon): 552 nM
TGI (HT29 colon): > 100000 nM
GI50 (SF-295 CNS): 295 nM
TGI (SF-295 CNS): > 100000 nM
GI50 (KM12 colon): 432 nM
TGI (KM12 colon): > 100000 nM
GI50 (SF-268 CNS): 516 nM
TGI (SF-268 CNS): > 100000 nM
GI50 (NCI-H226 lung): 367 nM
TGI (NCI-H226 lung): 10800 nM
GI50 (SNB-19 CNS): 665 nM
TGI (SNB-19 CNS): > 100000 nM
GI50 (OVCAR-4 ovarian): 534 nM
TGI (OVCAR-4 ovarian): > 83100 nM
GI50 (NCI/ADR-RES ovarian): 243 nM
TGI (NCI/ADR-RES ovarian): > 24900 nM
GI50 (PC-3 prostate): 780 nM
TGI (PC-3 prostate): > 100000 nM
GI50 (COLO 205 colon): 368 nM
TGI (COLO 205 colon): > 38500 nM
GI50 (MDA-MB-435): 712 nM
TGI (MDA-MB-435): > 100000 nM
GI50 (T-47D breast): 837 nM
TGI (T-47D breast): > 52600 nM
GI50 (SK-MEL-2 melanoma): 1900 nM
TGI (SK-MEL-2 melanoma): 56400 nM
GI50 (MOLT-4 leukemia): 407 nM
TGI (MOLT-4 leukemia): > 100000 nM
GI50 (TK-10 renal): 504 nM
TGI (TK-10 renal): > 100000 nM
GI50 (NCI-H460 lung): 245 nM
TGI (NCI-H460 lung): 11000 nM
GI50 (SN12C renal): 704 nM
TGI (SN12C renal): > 100000 nM
GI50 (HOP-92 NSCLC): 1400 nM
TGI (HOP-92 NSCLC): 63800 nM
GI50 (RXF 393 renal): 557 nM
TGI (RXF 393 renal): 10000 nM
GI50 (MDA-MB-231 breast): 633 nM
TGI (MDA-MB-231 breast): > 100000 nM
GI50 (UACC-257 melanoma): 1160 nM
TGI (UACC-257 melanoma): 6050 nM
GI50 (SNB-75 CNS): 986 nM
TGI (SNB-75 CNS): 27300 nM
GI50 (MCF7 breast): 541 nM
TGI (MCF7 breast): 36000 nM
GI50 (HS 578T breast): 4310 nM
TGI (HS 578T breast): > 100000 nM
GI50 (SR leukemia): 448 nM
TGI (SR leukemia): > 100000 nM
GI50 (786-0 renal): 387 nM
TGI (786-0 renal): 11900 nM
GI50 (A549 NSCLC): 471 nM
TGI (A549 NSCLC): > 55800 nM
GI50 (SK-MEL-28 melanoma): 595 nM
TGI (SK-MEL-28 melanoma): > 100000 nM
GI50 (IGROV1 ovarian): 509 nM
TGI (IGROV1 ovarian): 29500 nM
GI50 (U251 CNS): 390 nM
TGI (U251 CNS): > 100000 nM
GI50 (OVCAR-8 ovarian): 343 nM
TGI (OVCAR-8 ovarian): > 31900 nM
GI50 (NCI-H522 lung): 1010 nM
TGI (NCI-H522 lung): 8070 nM
GI50 (A498 renal): 1160 nM
TGI (A498 renal): 4990 nM
GI50 (SF-539 CNS): 489 nM
TGI (SF-539 CNS): > 100000 nM
GI50 (HCC-2998 colon): 568 nM
TGI (HCC-2998 colon): > 100000 nM
GI50 (HCT-15 colon): 69.1 nM
TGI (HCT-15 colon): > 45700 nM
GI50 (BT-549 breast): 667 nM
GI50 (DU-145 prostate): 780 nM
TGI (DU-145 prostate): > 100000 nM
GI50 (CCRF-CEM leukemia): 395 nM
TGI (CCRF-CEM leukemia): > 60400 nM
GI50 (MALME-3M melanoma): 1070 nM
TGI (MALME-3M melanoma): 20200 nM
GI50 (LOX IMVI melanoma): 317 nM
TGI (LOX IMVI melanoma): 4080 nM
GI50 (HL-60(TB) leukemia): 435 nM
TGI (HL-60(TB) leukemia): > 38000 nM
GI50 (NCI-H23 lung): 895 nM
TGI (NCI-H23 lung): > 100000 nM
GI50 (ACHN renal): 111 nM
TGI (ACHN renal): 12200 nM
GI50 (RPMI-8226 leukemia): 721 nM
TGI (RPMI-8226 leukemia): > 57600 nM
GI50 (SW-620 colon): 649 nM
TGI (SW-620 colon): > 100000 nM
GI50 (EKVX NSCLC): 408 nM
TGI (EKVX NSCLC): > 57200 nM
GI50 (CAKI-1 renal): 281 nM
TGI (CAKI-1 renal): > 100000 nM
GI50 (HOP-62 NSCLC): 344 nM
TGI (HOP-62 NSCLC): > 32800 nM
GI50 (UACC-62 melanoma): 481 nM
TGI (UACC-62 melanoma): 11200 nM
GI50 (HCT-116 colon): 345 nM
TGI (HCT-116 colon): > 42900 nM
GI50 (K-562 leukemia): 508 nM
TGI (K-562 leukemia): > 100000 nM
GI50 (M14 melanoma): 292 nM
TGI (M14 melanoma): 4050 nM
